Results taken from ChEMBL document CHEMBL5465560, “Selectivity Literature for EUbOPEN Chemogenomic Library” (2024).
pKi: −log10 of the molar value.

Tests used:
Insulin receptor = Insulin receptor (Homo sapiens, UniProt P06213); test: Selectivity interaction (KinomeScan (DiscoverX)) EUB0001079a INSR; settings: at 1 µM
[1] = target: T1, Phosphatidylinositol 5-phosphate 4-kinase type-2 gamma (Homo sapiens) (UniProt Q8TBX8); test: Selectivity interaction (Kinase panel (KiNativ target engagement assay in Jurkat cells)) EUB0001635a PIP4K2C; format: cell-based; settings: Selectivity number of off-targets 0.0, Selectivity number of targets 233.0, Source Knowledge https://www.sciencedirect.com/science/article/pii/S2451945619300674?via%3Dihub, at 1 µM
T1 sequence (whole entry): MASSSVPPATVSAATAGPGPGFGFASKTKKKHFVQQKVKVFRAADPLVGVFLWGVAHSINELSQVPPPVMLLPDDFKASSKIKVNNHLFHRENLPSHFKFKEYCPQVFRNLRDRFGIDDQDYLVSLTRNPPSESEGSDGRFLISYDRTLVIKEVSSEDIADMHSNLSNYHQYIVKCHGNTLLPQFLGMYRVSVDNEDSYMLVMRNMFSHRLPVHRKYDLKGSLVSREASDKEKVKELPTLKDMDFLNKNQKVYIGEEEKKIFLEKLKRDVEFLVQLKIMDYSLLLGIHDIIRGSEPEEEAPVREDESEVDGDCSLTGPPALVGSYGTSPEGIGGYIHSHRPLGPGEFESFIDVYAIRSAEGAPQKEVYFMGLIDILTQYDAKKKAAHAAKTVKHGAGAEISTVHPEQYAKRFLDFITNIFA

[2] = target: T2, Beta-adrenergic receptor kinase 1 (Homo sapiens) (UniProt P25098); test: Selectivity interaction (Kinase panel (KiNativ target engagement assay in Jurkat cells)) EUB0001635a ADRBK1; format: cell-based; settings: Selectivity number of off-targets 0.0, Selectivity number of targets 233.0, Source Knowledge https://www.sciencedirect.com/science/article/pii/S2451945619300674?via%3Dihub, at 1 µM
T2 sequence (whole entry): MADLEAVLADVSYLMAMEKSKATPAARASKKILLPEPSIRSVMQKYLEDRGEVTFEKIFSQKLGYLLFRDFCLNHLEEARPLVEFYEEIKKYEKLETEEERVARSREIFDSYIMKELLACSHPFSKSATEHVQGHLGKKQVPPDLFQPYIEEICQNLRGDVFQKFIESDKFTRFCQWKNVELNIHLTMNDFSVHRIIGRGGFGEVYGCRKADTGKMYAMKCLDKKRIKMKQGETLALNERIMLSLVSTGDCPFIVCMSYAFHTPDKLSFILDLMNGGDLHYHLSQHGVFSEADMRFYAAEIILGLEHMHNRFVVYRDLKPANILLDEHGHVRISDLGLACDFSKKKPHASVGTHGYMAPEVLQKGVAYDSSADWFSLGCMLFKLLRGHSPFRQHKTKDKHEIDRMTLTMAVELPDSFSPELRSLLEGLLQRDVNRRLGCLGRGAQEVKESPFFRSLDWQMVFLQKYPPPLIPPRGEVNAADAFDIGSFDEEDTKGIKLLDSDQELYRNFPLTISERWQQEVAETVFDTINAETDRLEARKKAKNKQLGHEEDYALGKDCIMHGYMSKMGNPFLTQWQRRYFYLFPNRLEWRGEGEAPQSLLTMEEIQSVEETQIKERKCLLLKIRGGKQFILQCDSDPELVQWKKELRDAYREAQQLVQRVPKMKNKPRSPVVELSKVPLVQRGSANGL

[3] = target: Dual specificity protein kinase CLK4 (Homo sapiens, UniProt Q9HAZ1); test: Selectivity interaction (KinomeScan (DiscoverX)) EUB0001550a CLK4; settings: at 1 µM
[4] = target: Serine/threonine-protein kinase Nek7 (Homo sapiens) (UniProt Q8TDX7); test: Selectivity interaction (ActivX KiNativ screen (kinase selectivity in THP-1 cell lysates)) EUB0000639a NEK7; format: subcellular; settings: lysate, at 0.2 µM
Chain of Serine/threonine-protein kinase Nek7 (Homo sapiens) (Q8TDX7 whole entry, looked up): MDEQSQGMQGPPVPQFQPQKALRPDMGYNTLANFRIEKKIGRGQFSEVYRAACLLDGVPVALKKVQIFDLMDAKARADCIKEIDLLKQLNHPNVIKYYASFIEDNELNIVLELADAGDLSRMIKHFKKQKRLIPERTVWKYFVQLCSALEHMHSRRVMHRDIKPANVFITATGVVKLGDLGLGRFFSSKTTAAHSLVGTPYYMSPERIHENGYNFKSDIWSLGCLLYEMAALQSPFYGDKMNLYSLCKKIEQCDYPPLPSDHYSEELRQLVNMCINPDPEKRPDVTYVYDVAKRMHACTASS

[5] = target: RAF proto-oncogene serine/threonine-protein kinase (Homo sapiens) (UniProt P04049); test: Selectivity interaction (Kinase panel (Invitrogen)) EUB0000639a RAF1; settings: at 200 nM
Chain of RAF proto-oncogene serine/threonine-protein kinase (Homo sapiens) (P04049 whole entry): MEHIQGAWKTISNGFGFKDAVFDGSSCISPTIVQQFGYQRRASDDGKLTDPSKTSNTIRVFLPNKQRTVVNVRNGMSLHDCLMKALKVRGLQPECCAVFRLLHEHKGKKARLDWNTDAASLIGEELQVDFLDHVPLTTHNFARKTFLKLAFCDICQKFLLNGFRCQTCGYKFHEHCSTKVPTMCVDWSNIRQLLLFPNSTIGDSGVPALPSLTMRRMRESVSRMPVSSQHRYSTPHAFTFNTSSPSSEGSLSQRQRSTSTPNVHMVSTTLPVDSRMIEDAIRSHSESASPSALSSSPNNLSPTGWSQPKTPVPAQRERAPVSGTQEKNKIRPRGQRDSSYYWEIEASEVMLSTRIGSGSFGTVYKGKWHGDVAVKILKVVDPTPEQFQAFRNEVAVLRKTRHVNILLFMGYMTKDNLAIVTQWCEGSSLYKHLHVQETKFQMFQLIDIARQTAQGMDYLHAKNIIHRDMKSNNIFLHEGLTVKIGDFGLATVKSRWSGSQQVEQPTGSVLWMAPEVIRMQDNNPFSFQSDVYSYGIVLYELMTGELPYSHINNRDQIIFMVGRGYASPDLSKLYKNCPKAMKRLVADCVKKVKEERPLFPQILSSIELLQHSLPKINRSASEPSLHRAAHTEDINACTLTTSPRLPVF

[6] = target: cAMP-dependent protein kinase catalytic subunit alpha (Homo sapiens, UniProt P17612); test: Selectivity interaction (Kinase counterscreening (biochemical assay)) EUB0000604a PRKACA
[7] = target: Myosin light chain kinase 2, skeletal/cardiac muscle (Homo sapiens) (UniProt Q9H1R3); test: Selectivity interaction (KinomeScan (DiscoverX)) EUB0000045b MYLK2
Chain of Myosin light chain kinase 2, skeletal/cardiac muscle (Homo sapiens) (Q9H1R3 whole entry): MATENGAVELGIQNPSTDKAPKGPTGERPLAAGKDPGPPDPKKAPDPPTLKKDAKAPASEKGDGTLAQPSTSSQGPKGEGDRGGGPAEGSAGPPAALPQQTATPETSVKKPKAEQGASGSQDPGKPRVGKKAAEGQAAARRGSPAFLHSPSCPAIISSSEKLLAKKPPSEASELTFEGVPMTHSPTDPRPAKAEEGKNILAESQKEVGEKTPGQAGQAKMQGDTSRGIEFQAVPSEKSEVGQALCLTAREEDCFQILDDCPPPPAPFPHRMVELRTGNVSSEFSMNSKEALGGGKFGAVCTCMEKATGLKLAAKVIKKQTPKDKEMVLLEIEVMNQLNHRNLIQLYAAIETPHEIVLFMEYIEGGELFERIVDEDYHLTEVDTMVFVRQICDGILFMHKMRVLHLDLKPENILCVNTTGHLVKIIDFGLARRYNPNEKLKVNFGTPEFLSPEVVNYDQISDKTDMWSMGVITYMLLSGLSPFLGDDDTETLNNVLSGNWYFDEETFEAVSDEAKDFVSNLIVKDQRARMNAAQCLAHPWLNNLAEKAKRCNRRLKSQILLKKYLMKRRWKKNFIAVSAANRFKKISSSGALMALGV

[8] = target: Serine/threonine-protein kinase 33 (Homo sapiens) (UniProt Q9BYT3); settings: at 10 µM
Chain of Serine/threonine-protein kinase 33 (Homo sapiens) (Q9BYT3 whole entry, looked up): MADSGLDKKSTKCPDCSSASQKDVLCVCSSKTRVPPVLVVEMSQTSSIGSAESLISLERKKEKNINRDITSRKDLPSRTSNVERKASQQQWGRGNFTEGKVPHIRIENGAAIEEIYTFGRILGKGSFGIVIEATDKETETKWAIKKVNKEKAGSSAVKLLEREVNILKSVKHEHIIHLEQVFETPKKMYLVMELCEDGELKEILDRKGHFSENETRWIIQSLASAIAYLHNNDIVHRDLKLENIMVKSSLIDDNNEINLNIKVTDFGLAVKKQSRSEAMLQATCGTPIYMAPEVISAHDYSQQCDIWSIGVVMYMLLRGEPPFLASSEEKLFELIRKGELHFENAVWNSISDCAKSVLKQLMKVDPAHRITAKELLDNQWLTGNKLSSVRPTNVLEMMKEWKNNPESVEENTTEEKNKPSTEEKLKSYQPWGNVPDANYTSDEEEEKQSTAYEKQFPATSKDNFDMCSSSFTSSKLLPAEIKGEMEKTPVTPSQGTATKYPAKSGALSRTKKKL

[9] = target: Histone-lysine N-methyltransferase, H3 lysine-36 specific (Homo sapiens) (UniProt Q96L73); test: Selectivity interaction (Methyltransferase screen (radiometric assays, panel of 8 PRMTs, 21 protein lysine methyltransferases, 3 DNA methyltransferases, and one RNA methyltransferase)) EUB0000272b NSD1
Chain of Histone-lysine N-methyltransferase, H3 lysine-36 specific (Homo sapiens) (Q96L73 whole entry): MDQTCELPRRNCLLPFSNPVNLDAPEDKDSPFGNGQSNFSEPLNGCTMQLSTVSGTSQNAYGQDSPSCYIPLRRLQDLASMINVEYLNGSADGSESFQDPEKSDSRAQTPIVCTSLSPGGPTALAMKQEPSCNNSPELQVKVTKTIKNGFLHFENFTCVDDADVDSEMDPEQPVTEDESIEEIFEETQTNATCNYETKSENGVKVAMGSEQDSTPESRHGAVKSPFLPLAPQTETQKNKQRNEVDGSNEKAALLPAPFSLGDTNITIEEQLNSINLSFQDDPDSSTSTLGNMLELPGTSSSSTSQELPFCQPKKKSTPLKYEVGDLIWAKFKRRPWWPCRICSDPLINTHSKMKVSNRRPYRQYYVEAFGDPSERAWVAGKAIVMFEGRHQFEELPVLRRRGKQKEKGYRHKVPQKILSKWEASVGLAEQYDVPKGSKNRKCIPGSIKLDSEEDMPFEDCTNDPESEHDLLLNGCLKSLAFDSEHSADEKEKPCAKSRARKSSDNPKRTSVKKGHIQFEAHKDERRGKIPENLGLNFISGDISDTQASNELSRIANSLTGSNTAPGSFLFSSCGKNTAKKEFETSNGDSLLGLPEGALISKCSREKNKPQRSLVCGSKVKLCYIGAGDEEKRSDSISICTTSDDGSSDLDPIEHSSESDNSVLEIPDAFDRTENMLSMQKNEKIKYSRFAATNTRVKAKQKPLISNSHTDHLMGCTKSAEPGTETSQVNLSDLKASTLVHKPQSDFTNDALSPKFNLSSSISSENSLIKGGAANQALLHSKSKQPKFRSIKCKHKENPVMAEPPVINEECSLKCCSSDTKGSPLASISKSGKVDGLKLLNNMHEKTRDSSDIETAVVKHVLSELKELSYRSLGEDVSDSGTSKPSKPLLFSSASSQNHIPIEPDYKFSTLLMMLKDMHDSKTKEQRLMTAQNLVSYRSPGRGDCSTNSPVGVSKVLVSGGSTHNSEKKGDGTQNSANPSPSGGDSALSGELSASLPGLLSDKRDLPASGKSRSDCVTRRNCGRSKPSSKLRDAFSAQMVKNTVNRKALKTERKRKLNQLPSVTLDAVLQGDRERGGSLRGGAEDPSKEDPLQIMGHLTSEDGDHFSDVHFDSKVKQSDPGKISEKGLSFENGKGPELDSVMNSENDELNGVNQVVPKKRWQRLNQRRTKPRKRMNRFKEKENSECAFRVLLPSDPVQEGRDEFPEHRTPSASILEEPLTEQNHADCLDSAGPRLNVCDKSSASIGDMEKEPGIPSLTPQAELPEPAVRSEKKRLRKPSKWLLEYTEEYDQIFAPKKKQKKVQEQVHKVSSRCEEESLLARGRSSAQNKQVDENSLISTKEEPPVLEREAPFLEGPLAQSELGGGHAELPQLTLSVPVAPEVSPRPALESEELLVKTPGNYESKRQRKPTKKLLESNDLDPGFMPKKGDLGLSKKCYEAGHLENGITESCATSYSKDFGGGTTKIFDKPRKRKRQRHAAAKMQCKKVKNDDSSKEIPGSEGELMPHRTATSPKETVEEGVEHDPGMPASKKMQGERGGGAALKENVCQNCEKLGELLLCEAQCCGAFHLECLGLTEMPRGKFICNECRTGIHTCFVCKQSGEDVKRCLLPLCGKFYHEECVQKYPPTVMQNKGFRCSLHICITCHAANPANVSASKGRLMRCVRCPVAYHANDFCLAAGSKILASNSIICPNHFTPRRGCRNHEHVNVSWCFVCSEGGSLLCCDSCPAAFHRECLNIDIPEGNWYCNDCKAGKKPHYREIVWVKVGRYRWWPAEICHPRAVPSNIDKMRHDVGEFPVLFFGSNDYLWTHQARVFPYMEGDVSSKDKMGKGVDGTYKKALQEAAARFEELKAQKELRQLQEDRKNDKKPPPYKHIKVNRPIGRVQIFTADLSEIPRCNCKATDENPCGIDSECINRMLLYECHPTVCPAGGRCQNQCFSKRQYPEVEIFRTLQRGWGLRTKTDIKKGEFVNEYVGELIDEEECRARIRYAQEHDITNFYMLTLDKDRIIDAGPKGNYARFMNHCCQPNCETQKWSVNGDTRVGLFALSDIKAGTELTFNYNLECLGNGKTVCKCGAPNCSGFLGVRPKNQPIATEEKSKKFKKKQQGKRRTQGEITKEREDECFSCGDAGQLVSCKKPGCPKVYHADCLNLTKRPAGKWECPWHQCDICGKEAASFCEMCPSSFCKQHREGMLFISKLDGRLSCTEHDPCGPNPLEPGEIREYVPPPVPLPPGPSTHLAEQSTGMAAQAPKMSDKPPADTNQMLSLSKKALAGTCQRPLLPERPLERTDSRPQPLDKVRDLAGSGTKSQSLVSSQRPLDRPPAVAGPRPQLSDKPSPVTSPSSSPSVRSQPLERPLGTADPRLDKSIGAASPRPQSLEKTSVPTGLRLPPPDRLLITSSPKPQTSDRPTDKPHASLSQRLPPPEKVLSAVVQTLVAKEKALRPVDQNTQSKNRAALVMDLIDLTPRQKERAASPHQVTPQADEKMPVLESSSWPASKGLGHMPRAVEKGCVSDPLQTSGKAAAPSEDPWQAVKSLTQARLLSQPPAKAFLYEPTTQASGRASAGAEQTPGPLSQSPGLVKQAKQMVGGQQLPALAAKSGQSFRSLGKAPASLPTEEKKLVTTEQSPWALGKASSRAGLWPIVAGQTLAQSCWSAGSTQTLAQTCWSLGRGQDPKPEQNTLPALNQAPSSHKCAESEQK

[10] = target: Cyclin-dependent kinase 5/CDK5 activator 1 (Homo sapiens) (UniProt Q00535+Q15078); test: Selectivity interaction (Kinase panel (Z-LYTE Assay)) EUB0001632a CDK5; format: protein-complex assay; settings: at 10 µM
[11] = target: T3, NUAK family SNF1-like kinase 2 (Homo sapiens) (UniProt Q9H093); test: Selectivity interaction (ProQinase) EUB0000171b NUAK2
T3 sequence (whole entry): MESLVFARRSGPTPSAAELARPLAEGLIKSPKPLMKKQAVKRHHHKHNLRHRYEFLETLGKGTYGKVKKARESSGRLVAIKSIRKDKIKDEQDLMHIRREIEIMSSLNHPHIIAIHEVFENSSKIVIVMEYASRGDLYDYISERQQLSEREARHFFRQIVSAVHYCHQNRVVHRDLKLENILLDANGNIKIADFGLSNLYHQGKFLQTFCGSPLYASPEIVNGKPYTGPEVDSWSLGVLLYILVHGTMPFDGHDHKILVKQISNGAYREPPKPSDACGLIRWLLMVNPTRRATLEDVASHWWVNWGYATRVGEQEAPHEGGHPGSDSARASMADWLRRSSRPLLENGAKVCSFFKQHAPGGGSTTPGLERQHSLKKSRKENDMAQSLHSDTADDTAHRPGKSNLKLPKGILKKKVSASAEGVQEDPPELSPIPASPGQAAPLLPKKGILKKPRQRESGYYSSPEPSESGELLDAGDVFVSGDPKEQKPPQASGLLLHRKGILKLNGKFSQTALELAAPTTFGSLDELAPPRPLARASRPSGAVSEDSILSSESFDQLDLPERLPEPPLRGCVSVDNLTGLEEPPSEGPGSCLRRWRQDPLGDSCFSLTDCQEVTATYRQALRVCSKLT

Structure (SMILES): Nc1cnc(N2CCc3cc(S(=O)(=O)Nc4c(F)cc(Cl)cc4F)cc(N4CCCC4=O)c32)nc1 [TP-020n]
- % of control (Insulin receptor): 89%

Structure (SMILES): C=CC(=O)Nc1ccc(C(=O)Nc2[nH]nc3c2CN(C(=O)N[C@H](CN(C)C)c2ccccc2)C3(C)C)cc1
- % of engagement [1]: -6.5%
- % of engagement [2]: -2.6%

Structure (SMILES): CN(C)CC#Cc1ccc2[nH]c3c(c2c1)-c1nc(N)ncc1CCC3
- % of control [3]: 34%

Structure (SMILES): CC[C@@H]1[C@H](F)C(=O)N[C@@H]1COc1nccc2cc(C(N)=O)c(OC)cc12 [ZIMLOVISERTIB]
- % of inhibition [4]: -2.2%
- % of inhibition [5]: 15.9%

Structure (SMILES): Cc1cnc(Nc2ccc(F)cc2Cl)nc1-c1c[nH]c(C(=O)N[C@H](CO)c2cccc(Cl)c2)c1
- pKi [6]: < 5.40

Structure (SMILES): C=CC(=O)Nc1cc(-n2c(=O)ccc3cnc4ccc(-c5ccc(NS(C)(=O)=O)cc5)cc4c32)ccc1C
- % of control ([7]; at 1 µM): 93%
- % of control ([7]; at 10 µM): 100%

Structure (SMILES): Cc1cc([C@@H](C)Nc2ccccc2C(=O)O)c2nc(N3CCOCC3)cc(=O)n2c1 [AZD-6482]
- % of control [8]: 100%

Structure (SMILES): Cc1cc(C)cc([C@H]2c3cc(C)ccc3NC(=O)CN2C(=O)c2ccc(Br)s2)c1
- % of activity ([9]; at 1 µM): 100%
- % of activity ([9]; at 10 µM): 102%

Structure (SMILES): Cn1cc(-n2cnc3c(NCc4nc5cc(Cl)c(Cl)cc5[nH]4)nc(N4CCOCC4)nc32)cn1
- % of control [10]: 3.1%

Structure (SMILES): C=CC(=O)Nc1cccc(C(=O)Nc2ccc(Nc3cc(-c4[nH]c(SC)nc4C)ccn3)cc2)c1
- % of control ([11]; at 1 µM): 99%
- % of control ([11]; at 5 µM): 87%
